Measurements as given in US4795808A, “Anthracycline tetrasaccharides” (Hoechst Aktiengesellschaft, priority 1985, dated 1989).

Test system: L1210 leukemia cells
Assay: cell proliferation test on L1210 leukemia cells (C14-thymidine incorporation)
Assay type: cell-based
Conditions: Mus musculus, 72 hours, 37° C., 5% of CO2, concentration which reduces incorporation of radioactive thymidine by 50% vs control
Experimental: The inhibiting action was determined (cell proliferation test) as described below:
[…] cells in the exponential growth phase (5×10^3 /ml in RPMI 1640) are incubated in a microtiter plate with different concentrations of the test substance for 72 hours (37° C., 5% of CO2, 95% relative atmospheric humidity). Controls comprise cells incubated only with fresh medium. All the determinations are carried out as 4-fold determinations. After 65 hours, 50 μl of C14-thymidine (1.5 μC/ml) are added in order to radiolabel the cell DNA. After incubation for 7 hours, the cells are filtered off with suction and the DNA is precipitated with 5% strength trichloroacetic acid and washed with water and methanol in succession. After drying at 50° C., the radioactivity incorporated into the DNA is determined after addition of 5 ml of scintillation liquid. The results are stated as ratios of the scintillation index after incubation with the test substance in percent of the untreated control. From the measurement values thus obtained, the dose/effect curve is determined, and the IC50, that is to say the concentration which reduces the incorporation of radioactive thymidine by 50% under test conditions in comparison with the control, is determined graphically.

## CCC1(O)CC(OC2CC(N(C)C)C(OC3CCC(OC4C=CC(=O)C(C)O4)C(C)O3)C(C)O2)c2c(O)c3c(c(O)c2C1OC1CC(N(C)C)C(O)C(C)O1)C(=O)c1cccc(O)c1C3=O (stereo not shown) [cytorhodin SE gluconate]
  IC50: 6 ng/mL
